Read-outs that look alike come from different tables or passages of the source.
Tests used:
[1] = system: T1, Breast cancer resistance protein (BCRP); test: In vivo microdialysis pharmacokinetics of LVFX with BCRP inhibitor Ko143; conditions: rat, intravenous, with Ko143 15 mg/kg i.p., 30 min before LVFX, Ko143 group, Ko143 15 mg/kg i.p. + LVFX 50 mg/kg, N=5
T1 construct: from tissue; host or cells: living rat (blood-brain barrier, choroid plexus)
Method: (§1) On the day of surgery, rats were anesthetized using inhaled isoflurane via a facemask. The rats were placed in a stereotaxic frame (Gene&I), and the body temperature was maintained with a homoeothermic blanket set at 37°C. A midline incision was made to expose the skull. According to the Paxinos and Watson atlas, two microdialysis intracerebral guide cannulae (Eicom Co.) were implanted into the hippocampus CA1 region (Hp‐CA1 coordinates: AP −4.16 mm; ML −2.2 mm; DV −2.9 mm) and lateral ventricle (LV coordinates: AP −1.4 mm; ML +2.2 mm; DV −3.4 mm). Fixed to the skull using a screw and dental cement. After 3 days of recovery, the rats were anesthetized with isoflurane again. An intravascular probe (TP‐100‐20; 20 mm, Eicom Co.) was implanted into the jugular vein toward the right atrium. After the blood microdialysis probe was positioned within the jugular vein, the pipeline was connected to perfuse with ACD solution (citric acid 3.5 mM; sodium citrate 7.5 mM; dextrose 13.6 mM) at a flow rate of […], and the Hamilton microinjection pump was used for continuous perfusion. After stopping isoflurane inhalation, the rats were allowed to wake up naturally on the homoeothermic blanket. The awake rats were placed in a device that allowed them to move freely. Animals were allowed to recover for an additional 24 h.
(§2) All microdialysate concentrations (C m) from the hippocampal ECF and lateral ventricle CSF were converted to the unbound drug concentration (C u) at the target site using the following formula: C u = C m/R dial.
(§3) A total of 32 rats were randomly divided into the following groups: • Control group, N = 12: vehicle solution + LVFX (50 mg/kg). • TAR group, N = 5: Tariquidar (8 mg/kg) + LVFX (50 mg/kg). • Ko143 group, N = 5: Ko143 (15 mg/kg) + LVFX (50 mg/kg). • MK571 group, N = 5: MK571 (20 mg/kg) + LVFX (50 mg/kg). • PRO group, N = 5: Probenecid (50 mg/kg) + LVFX (50 mg/kg).
(§4) Levofloxacin was freshly dissolved in isotonic saline and administered via tail vein injection. Thirty minutes before LVFX administration, the intervention drugs of each group were injected intraperitoneally. To reduce the possible effect of solvents on BBB or BCSFB permeability of LVFX, we prioritized water as the solvent. However, Tariquidar and Ko143 are insoluble in water, and a cosolvent must be used to prepare agents that animals can tolerate. According to the different physicochemical properties of these four inhibitors, the preparation of each transporter inhibitor solution in this experiment was as follows. • P‐glycoprotein (P‐gp) inhibitor Tariquidar[22]: Tariquidar was freshly dissolved in DMSO to 8 mg/ml and then diluted to 4 mg/ml with a solution containing 10% Tween‐80, 25% PEG300, and 65% sterile water. • Breast cancer resistance protein (BCRP) inhibitor Ko143[23]: Ko143 was freshly dissolved in DMSO to 15 mg/ml and then diluted to 7.5 mg/ml with a solution containing 10% Tween‐80, 25% PEG300, and 65% sterile water. • Multidrug resistance‐associated proteins (MRPs) inhibitor MK571[24]: MK571 sodium salt hydrate was dissolved in 1.25% (w/v) aq sodium hydrogen carbonate (NaHCO3) solution to obtain a concentration of 10 mg/ml. • Organic anion transporters (OATs) inhibitor probenecid[25]: Probenecid was dissolved in NaOH (pH = 9.0–9.2) alkalized physiological saline to obtain a concentration of 25 mg/ml.
(§5) The pipelines where the blood and brain probes were installed were perfused at the speed of 2 μl/min with ACD solution and ACSF, respectively. Two brain probes were inserted into guide cannulas of the target site and allowed to equilibrate for 1 h. Subsequently, the rats were treated according to their corresponding groups in the device where they could move freely. Microdialyses samples were collected every 15 min using a fraction collector (EFC‐96, Eicom Co.) for 3 h and stored at 4°C until analysis. Finally, rats were anesthetized and decapitated, and their brain was harvested.

[2] = target: T2, Breast cancer resistance protein (BCRP) (Rattus norvegicus, UniProt Q80W57); test: as above; conditions: intravenous, with Ko143 15 mg/kg i.p., Ko143 group, Ko143 15 mg/kg i.p. + LVFX 50 mg/kg; for MRT / AUC(0-inf) / Cmax / half-life / AUC(0-t): mean ± SD; for MRT / Tmax / AUC(0-inf) / Cmax / half-life: N=5; for AUC(0-t): N=5, read-out: AUC0–180 (converted)
T2 construct: from tissue; host or cells: living rat (blood-brain barrier, choroid plexus)
T2 sequence (Q80W57 1-657): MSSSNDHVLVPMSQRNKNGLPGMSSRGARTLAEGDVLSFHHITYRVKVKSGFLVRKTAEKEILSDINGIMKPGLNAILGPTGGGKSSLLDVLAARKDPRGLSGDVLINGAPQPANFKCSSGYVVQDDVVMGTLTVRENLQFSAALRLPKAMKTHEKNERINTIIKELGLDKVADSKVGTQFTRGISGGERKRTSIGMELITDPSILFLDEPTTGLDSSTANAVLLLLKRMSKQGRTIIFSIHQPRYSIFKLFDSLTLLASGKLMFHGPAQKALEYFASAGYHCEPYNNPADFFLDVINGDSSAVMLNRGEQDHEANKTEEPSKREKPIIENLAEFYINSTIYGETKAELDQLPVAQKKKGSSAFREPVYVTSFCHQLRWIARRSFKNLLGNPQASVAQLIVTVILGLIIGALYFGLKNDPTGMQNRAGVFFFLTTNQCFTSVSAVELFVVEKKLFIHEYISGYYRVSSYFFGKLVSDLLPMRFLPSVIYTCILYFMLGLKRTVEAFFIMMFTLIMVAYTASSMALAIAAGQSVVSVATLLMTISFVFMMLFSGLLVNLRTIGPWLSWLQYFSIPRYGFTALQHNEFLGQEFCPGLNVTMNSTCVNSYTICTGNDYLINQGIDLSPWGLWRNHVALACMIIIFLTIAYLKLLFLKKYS
Method: as §1, §2, §3, §4, §5

[3] = CSF (lateral ventricle microdialysate, unbound), CSF
[4] = brain ECF (hippocampal microdialysate, unbound), 30 min before LVFX, brain ECF

C[C@H]1COc2c(N3CCN(C)CC3)c(F)cc3c(=O)c(C(=O)O)cn1c23 [LVFX, Levofloxacin]
Kp ([1]; CSF / blood (unbound, microdialysate), AUCu,CSF/AUCu,blood, read-out: K p,uu,CSF): 0.424 ± 0.035
Kp ([1]; brain ECF / blood, AUCu,ECF/AUCu,blood, read-out: K p,uu,ECF): 0.389 ± 0.024
MRT ([2]; CSF (lateral ventricle microdialysate, unbound), 30 min before LVFX, CSF): 69.6 min
Tmax [2, 3]: 15 min
AUC(0-inf) [2, 3]: 4940 ng·h/mL
Cmax [2, 3]: 4260 ± 320 ng/mL
half-life [2, 3]: 41.8 ± 6.9 min
AUC(0-t) [2, 3]: 4650 ng·h/mL
Tmax [2, 4]: 15 min
AUC(0-inf) [2, 4]: 4650 ng·h/mL
Cmax [2, 4]: 3710 ± 250 ng/mL
MRT [2, 4]: 75.5 min
half-life [2, 4]: 44.4 ± 10.4 min
AUC(0-t) [2, 4]: 4280 ng·h/mL
Tmax ([2]; 30 min before LVFX, blood): 15 min
AUC(0-inf) ([2]; 30 min before LVFX, blood): 11900 ng·h/mL
Cmax ([2]; 30 min before LVFX, blood): 11000 ± 770 ng/mL
MRT ([2]; 30 min before LVFX, blood): 67.7 min
half-life ([2]; 30 min before LVFX, blood): 42.8 ± 7.7 min
AUC(0-t) ([2]; 30 min before LVFX, blood): 11100 ng·h/mL

From PMC9804084, “Multiple drug transporters contribute to the brain transfer of levofloxacin” (CNS Neuroscience & Therapeutics, 2022)
